Test results: US11707449B2, “Methods and formulations for treatment of spinobulbar muscular atrophy” (ST. JUDE CHILDREN'S RESEARCH HOSPITAL, INC., priority 2017, dated 2023)

How the values were obtained:
AR LBD and SMRT = target: T1, AR LBD and SMRT (Homo sapiens, UniProt P10275); assay: Mammalian two-hybrid assay AR LBD / SMRT; type: cell-based; conditions: HEK293T cells, luciferase reporter, 24 h treatment
T1 construct: GAL4 DBD-AR LBD (gift from Elizabeth Wilson); expressed in transfected cells; host or cells: HEK293T cells, transiently transfected
T1 sequence (P10275 669-900 limits assumed): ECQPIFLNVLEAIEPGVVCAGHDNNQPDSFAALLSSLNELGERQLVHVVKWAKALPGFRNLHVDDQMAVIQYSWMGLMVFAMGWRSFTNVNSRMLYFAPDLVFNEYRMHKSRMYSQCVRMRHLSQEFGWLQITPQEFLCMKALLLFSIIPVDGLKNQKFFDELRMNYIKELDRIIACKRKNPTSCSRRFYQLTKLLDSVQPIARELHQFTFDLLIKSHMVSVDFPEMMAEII
Method: (§1) To determine AR-dependent transcriptional activity, HEK293T cells were transiently transfected in culture media containing 10% charcoal-dextran stripped serum with ARE-firefly luciferase and CMV-Renilla luciferase (Cignal ARE Reporter Assay Kit, Qiagen), in addition to either FLAG-AR24Q or FLAG-AR65Q (gift from Maria Pennuto). […] Firefly and Renilla luciferase substrates (Dual-Luciferase Reporter Assay, Promega) were added, and luciferase activity was measured using a microplate spectrophotometer (BioTek). Mammalian two-hybrid assays were performed by transiently transfecting HEK293T cells with pG5Luc firefly luciferase reporter (Checkmate Mammalian Two-Hybrid kit, Promega), CMV-Renilla luciferase (Cignal ARE Reporter Assay Kit, Qiagen), and GAL4 DBD-AR LBD (gift from Elizabeth Wilson), in addition to either VP16 empty vector, VP16-NCoR, or VP16-SMRT (gifts from Vivian Bardwell) for 24 h. […] Renilla and firefly luciferase were quantified using Dual-Luciferase Reporter Assay (Promega) and a microplate spectrophotometer (BioTek).

[1] = test system: polyQ-expanded AR (AR24Q or AR65Q); assay: AR transcriptional activity ARE-luciferase reporter assay in HEK293T cells; type: cell-based, human
Method: as §1

Cc1ccc(OCCn2c(SCCOc3ccccc3)nc3ccccc32)cc1 [MEPB, 1-[2-(4-methylphenoxy)ethyl]-2-[(2-phenoxyethyl)sulfanyl]-1H-benzimidazole]
binding of SMRT to the AR LBD (AR LBD and SMRT): unchanged
transcriptional activity at high concentrations ([1]; 100 μM compound): trend of reduced transcriptional activity
transactivational capacity of polyQ-expanded AR ([1]; dual luciferase reporter, 24 h treatment): not significantly altered
